{
  "source": "patent US5731155A",
  "about": "“Compositions for inhibition of intracellular transcription factors and methods therefor” (Washington University, priority 1996, dated 1998)",
  "molecules": {"B1": {"name": "rHuIFNγ: Purified recombinant human IFNγ provided by Genentech, Inc. (protein, UniProt P01579 24-161, looked up)", "Interferon gamma": "QDPYVKEAENLKKYFNAGHSDVADNGTLFLGILKNWKEESDRKIMQSQIVSFYFKLFKNFKDDQSIQKSVETIKEDMNVKFFNSNKKKRDDFEKLTNYSVTDLNVQRKAIHELIQVMAELSPAAKTGKRKRSQMLFRG"}},
  "key": {"p91": {"target": "T1, p91 (Homo sapiens, UniProt P42224)", "T1 construct": "endogenous in cells; host or cells: Colo-205 (human adenocarcinoma) cell homogenates", "T1 sequence (P42224 1-750)": "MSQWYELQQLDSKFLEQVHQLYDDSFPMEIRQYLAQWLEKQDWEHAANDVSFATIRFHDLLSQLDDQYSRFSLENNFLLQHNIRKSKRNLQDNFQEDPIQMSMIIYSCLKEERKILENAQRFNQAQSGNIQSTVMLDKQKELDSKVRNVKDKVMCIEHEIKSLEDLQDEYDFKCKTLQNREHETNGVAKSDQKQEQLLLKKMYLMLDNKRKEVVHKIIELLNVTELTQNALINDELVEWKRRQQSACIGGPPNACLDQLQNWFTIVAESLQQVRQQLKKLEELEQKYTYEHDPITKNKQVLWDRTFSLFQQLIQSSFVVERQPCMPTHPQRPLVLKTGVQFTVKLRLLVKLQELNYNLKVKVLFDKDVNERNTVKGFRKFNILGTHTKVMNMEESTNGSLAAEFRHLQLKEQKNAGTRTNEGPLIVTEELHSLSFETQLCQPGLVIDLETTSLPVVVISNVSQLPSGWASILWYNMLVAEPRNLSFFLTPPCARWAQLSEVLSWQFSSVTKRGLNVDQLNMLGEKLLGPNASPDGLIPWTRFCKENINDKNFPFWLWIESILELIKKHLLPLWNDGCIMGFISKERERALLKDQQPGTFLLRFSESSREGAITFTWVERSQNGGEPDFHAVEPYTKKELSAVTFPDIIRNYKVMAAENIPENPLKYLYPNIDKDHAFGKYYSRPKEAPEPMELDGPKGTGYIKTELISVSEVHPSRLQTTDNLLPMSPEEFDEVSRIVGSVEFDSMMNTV", "assay": "Electrophoretic mobility shift assay (EMSA) of IFNγ-induced p91 activation in Colo-205 homogenates", "assay_type": "biochemical", "conditions": "phosphopeptide 3 μM", "source_text": "For this example, the finding that the latent IFNγ inducible transcription factor, p91, can be activated by IFNγ in a cell free system (Igarashi et al., Mol Cell Biol 13:1634-1640, 1993 which is incorporated by reference) was utilized to determine the biologic significance of the IFNγ induced tyrosine phosphorylation of the Y440 residue in the IFNγ receptor molecule. Colo-205 homogenates were stimulated with 1900 IRU of human IFNγ and p91 activation monitored using an electrophoretic mobility gel shift assay (EMSA) that employed a ^32 P-labeled 18 bp probe derived from the FcγR I gene promoter (Pearse et al., Proc Natl Acad Sci 90:4314-4318, 1993 which is incorporated by reference). The EMSAs were carried out essentially as described (Igarashi et al., supra). […] The reactions were then electrophoresed through a 6% polyacrylamide gel in 0.25×TBE for 3 hours at 150 V. Gels were dried and subsequently analyzed by autoradiography. […] Specificity of interactions were determined by the addition of 350 ng of the unlabeled GRR probe or 560 ng of the unlabeled 41 base pair double stranded oligonucleotide containing the ISRE of ISG15 (5'-GATCCATGCCTCGGGA-[…]-3' SEQ ID NO: 14) (David and Larner, Science 257:813-815, 1992 which is incorporated by reference). […]"}, "IFNγ receptor α chain": {"tested_on": "IFNγ receptor α chain", "assay": "IFNγ dependent tyrosine phosphorylation of the IFNγ receptor α chain in Colo-205 cells (4G10 western blot)", "assay_type": "cell-based, human", "conditions": "pretreatment of Colo-205 cells with 1 mM", "source_text": "For these experiments, Colo-205, a human adenocarcinoma cell line obtained from the ATCC, was used because it was known to express a high number of IFNγ receptors (10,000 receptors/cell) and has been well characterized with regard to both biologic responsiveness to IFNγ and IFNγ receptor […] phosphorylation (Hershey and Schreiber, 1989; Hershey et al., 1990 both of which are incorporated by reference). Colo-205 cells (5-10×10^7) were resuspended in one ml of PBS-10% FCS and were then incubated at 37° C., either in the presence or absence of rHuIFNγ (10,000 IRU). Purified recombinant human IFNγ was provided by Dr. Susan Kramer of Genentech, Inc. (South San Francisco, Calif.). […] Purified rHuIFNγ was radioiodinated, using Bolton Hunter reagent (ICN Chemicals, Radioisotope Division, Irvine, Calif.) to specific activities of 6.5-17.8 μCi/μg as described in Celada et al. (J Clin Invest 76:2196-2205, 1985 which is incorporated by reference). The reaction was stopped by adding 4 mls of ice-cold PBS. Cells were pelleted, washed once in ice-cold PBS, and then lysed in one ml of lysis buffer (25 mM Tris-HCl (pH 8.0), 1% NP-40, 150 mM NaCl, 1 mM sodium orthovanadate, 10 mM NaF, 1 mM PMSF, 5mM iodoacetamide, […] leupeptin and aprotinin). Solubilized cells were centrifuged at 15,000×g to remove cell nuclei and the supernatants were then incubated with 10 μg of GIR-94 for 30 minutes at 4° C. Protein G sepharose was added to the reaction mixture and the incubation continued for an additional 30 minutes. […]\nTo determine the amount of receptor precipitated at each time point, aliquots from each immunoprecipitate were subjected to western blot analysis using a monoclonal antibody (GIR-94, a murine antibody IgG2b) that is specific for the human IFNγ receptor extracellular domain. In the absence of added IFNγ, no tyrosine phosphorylated receptor was detected (FIG. 1, lane 1). […]"}, "Colo-205 cells": {"tested_on": "Colo-205 cells", "assay": "IFNγ dependent MHC class II induction on Colo-205 cells", "assay_type": "cell-based, human", "conditions": "pretreatment of Colo-205 cells with 1 mM", "protocol": "To further characterize the tyrosine phosphorylation of the […] receptor and to partially validate its biologic significance, concomitant dose-response phosphorylation and MHC class II induction analyses were performed. Colo-205 cells (1×10^8 cells/ml) were stimulated for 5 minutes with the indicated concentrations of rHuIFNγ as shown in FIG. 2. Cells were lysed and the IFNγ receptor immunoprecipitated, subjected to SDS-PAGE and electrophoretically transferred to nitrocellulose membranes as described above. Membranes were blotted with the mAb 4G10 (anti-phosphotyrosine) as described. Colo-205 cells (1×10^8 cells/ml) were also stimulated for 5 minutes with the indicated concentrations of rHuIFNγ, washed, and incubated an additional 48 hours in the absence of rHuIFNγ. MHC class II expression was quantitated by flow cytometric analysis."}, "[1]": {"assay": "Specific antiviral activity of rHuIFNγ", "conditions": "purified recombinant human IFNγ"}},
  "note": "Where a SMILES comes first, the peptide text is derived from it. [ ]: non-standard residue; d: D form. pY = N[C@@H](Cc1ccc(OP(=O)(O)O)cc1)C(=O)O",
  "data": [
    {"molecule": "C[C@@H](O)[C@H](N)C(=O)N[C@@H](CO)C(=O)N[C@@H](Cc1ccccc1)C(=O)NCC(=O)N[C@@H](Cc1ccc(OP(=O)(O)O)cc1)C(=O)N[C@@H](CC(=O)O)C(=O)N[C@@H](CCCCN)C(=O)N1CCC[C@H]1C(=O)N[C@@H](Cc1c[nH]cn1)C(=O)O", "note": "[SEQ ID NO:3, Thr-Ser-Phe-Gly-Xaa-Asp-Lys-Pro-His] (H-TSFG[pY]DKPH-OH)", "values": [
      {"measurement": "inhibition of formation of activated p91-labeled probe complex", "setting": "p91", "result": 61, "unit": "%"}
    ]},
    {"molecule": "CO[C@H]1[C@@H](OC)C[C@H](C)[C@@H](OC)C2=CC(=O)C=C(NC(=O)/C(C)=C/C=C\\[C@H](OC)[C@@H](OC(N)=O)/C(C)=C/[C@@H]1C)C2=O", "note": "[herbimycin A, reference compound]", "values": [
      {"measurement": "IFNγ dependent tyrosine phosphorylation of the IFNγ receptor α chain", "setting": "IFNγ receptor α chain", "result": "inhibited"},
      {"measurement": "IFNγ dependent MHC class II induction", "setting": "Colo-205 cells", "result": "blocked"}
    ]},
    {"molecule": "B1", "values": [
      {"measurement": "specific antiviral activities", "setting": "[1]", "result": "3.8×10^7 IRU/mg"}
    ]}
  ]
}
